Structures are written as SMILES.

The subject of one test is Ikaros. The experiment in a line: Ikaros expression by western blot at 6 hours (FIG. 37). It is filed as cell-based. The conditions noted are these: 6 hours after the treatment, with varying degrees. A general note: Immunoblotting shows a protein as a band on a membrane.
Test [1] has as its system Aiolos. Description: Aiolos protein level in B cells from CLL patients and healthy subjects. It is filed as cell-based, human. The conditions noted are these: B cells obtained from CLL patients as well as healthy subjects.
Test [2] has as its system Aiolos. The experiment in a line: B-CLL / CD40L fibroblast co-culture, Aiolos (Western blot, flow cytometry). It is filed as cell-based, human. The conditions noted are these: for Aiolos protein level: B-CLL co-culture, 72 hours, 10 μM lenalidomide, 1 μM pomalidomide, 0.1 μM Compound A, 0.1 μM Compound B, 3 patient samples; for Dose dependence of Aiolos inhibition by flow cytometry: three different B-CLL patient co-culture samples. Here is the method: (§1) CD40L expressing fibroblasts (gift from Angela Piperno, Rockefeller University, NY, N.Y.) were maintained in DMEM medium supplied with 20% FBS. Prior to co-cultures CD40L fibroblasts were pre-treated for 3 hours with 10 μg/mL Mytomicin C followed by a wash with PBS and Accutase dissociation. Cells were then re-plated at a density of 6×10^5 cells per well (24 well per plate format) and grown overnight to allow formation of monolayer. […] For long term cultures, half of the culture media was renewed every three days. Alternatively, for other assays, B-CLL cells were co-cultured on CD40L without being pre-stained.
(§2) Effects of compound treatment on CRBN, Aiolos, p21^WAF-1 and IRF4 were evaluated in 3 different patient cell samples (FIG. 56A).

Test [3] concerns Aiolos. Description: Aiolos expression by western blot at 6 hours (FIG. 37). In kind it is cell-based. The conditions noted are these: 6 hours after the treatment, with varying degrees.
Test [4] relates to Aiolos. Description: Aiolos protein inhibition in myeloma cells. In kind it is cell-based.
Test [5] deals with Aiolos. Description: Aiolos Western blotting of primary human T cells. It is filed as cell-based. The conditions noted are these: 6 hours and 24 hours. As to the method:
Primary T cells from up to 3 donors were isolated from human leukocytes (Blood Center of New Jersey, East Orange, N.J.) by centrifugation through FICOLL® following the ROSETETTESEP™ protocol (Stem Cell Technologies, Vancouver, Canada). Purified T cells were stimulated with anti-CD3 Antibody (Ebioscience, San Diego, Calif.), drug treated for six hours, harvested and Aiolos and Ikaros protein expression was determined by immunoblot analysis using antibodies against Aiolos (Santa Cruz, Dallas, Tex.) and Ikaros (Millipore, Billerica, Mass.) with our without blocking peptide.

Another test relates to p21^WAF-1. Description: B-CLL / CD40L fibroblast co-culture Western blot, p21^WAF-1. In kind it is cell-based, human. The conditions noted are these: 72 hours, 10 μM lenalidomide, 1 μM pomalidomide, 0.1 μM Compound A, 0.1 μM Compound B, 3 patient samples. Here is the method:
(§3) Human primary B-CLL cells viably frozen from patient samples were obtained from AllCells (Emeryville, Calif., USA) and maintained in Roswell Park Memorial Institute (RPMI)-1640 medium with 10% fetal bovine serum (FBS) (Invitrogen, Carlsbad, Calif.). CD40L expressing fibroblasts (gift from Angela Piperno, Rockefeller University, NY, N.Y.) were maintained in DMEM medium supplied with 20% FBS. Prior to co-cultures CD40L fibroblasts were pre-treated for 3 hours with 10 μg/mL Mytomicin C followed by a wash with PBS and Accutase dissociation. Cells were then re-plated at a density of 6×10^5 cells per well (24 well per plate format) and grown overnight to allow formation of monolayer. Defrosted viable primary B-CLL patient cells were pre-stained with CFSE reagent (Vibrant CFDA SE Cell Tracer Kit, Invitrogen, Carlsbad, Calif., USA) according to a manufacturer's supplied protocol and plated at 0.8-1×10^6 cells per well on the pre-formed monolayer of CD40L fibroblasts in RPMI 1640 medium supplemented with 10% FBS, 5 ng/mL rh-IL4 and 10 ng/mL rh-IL10 (Peprotech, USA). For long term cultures, half of the culture media was renewed every three days. Alternatively, for other assays, B-CLL cells were co-cultured on CD40L without being pre-stained.
(§4) Effects of compound treatment on CRBN, Aiolos, p21^WAF-1 and IRF4 were evaluated in 3 different patient cell samples (FIG. 56A). The three patient samples show similar expression levels of CRBN protein (compare lane 1 of the 3 Western blots in FIG. 56A; samples were run in same membrane even though gels are presented as 3 independent pictures in the figure). […] The effects on p21, IRF4 and Aiolos are consistent with the cell cycle arrest and inhibition of proliferation observed with compound treatment.

A further test has as its target CRBN (Homo sapiens, UniProt Q96SW2). The experiment in a line: B-CLL / CD40L fibroblast co-culture Western blot, CRBN. It is filed as cell-based. On the set-up: endogenous in cells; host or cells: primary B-CLL patient cells co-cultured with CD40L-expressing fibroblasts. The conditions noted are these: 72 hours, 10 μM lenalidomide, 1 μM pomalidomide, 0.1 μM Compound A, 0.1 μM Compound B, 3 patient samples. As to the method: as §1, §2

The subject of another test is IRF4. Description: B-CLL / CD40L fibroblast co-culture Western blot, IRF4. In kind it is cell-based, human. The conditions noted are these: 72 hours, 10 μM lenalidomide, 1 μM pomalidomide, 0.1 μM Compound A, 0.1 μM Compound B, 3 patient samples. As to the method:
as §3, §4

Sequence of CRBN (Q96SW2 whole entry): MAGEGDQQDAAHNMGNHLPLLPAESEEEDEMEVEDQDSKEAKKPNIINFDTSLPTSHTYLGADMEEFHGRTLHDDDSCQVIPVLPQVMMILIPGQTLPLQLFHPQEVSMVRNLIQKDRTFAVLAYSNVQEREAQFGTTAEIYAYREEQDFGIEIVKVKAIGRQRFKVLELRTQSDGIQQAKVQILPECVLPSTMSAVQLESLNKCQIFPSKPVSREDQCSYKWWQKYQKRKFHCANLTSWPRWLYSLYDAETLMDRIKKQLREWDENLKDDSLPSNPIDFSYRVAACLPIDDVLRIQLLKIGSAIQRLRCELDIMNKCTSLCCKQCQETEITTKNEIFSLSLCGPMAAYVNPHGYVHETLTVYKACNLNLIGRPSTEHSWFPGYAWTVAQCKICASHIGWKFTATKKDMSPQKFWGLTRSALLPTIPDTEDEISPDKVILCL

As for `Cc1nc2cccc(N)c2c(=O)n1C1CCC(=O)NC1=O` (centres unmarked) [Compound A, 3-(5-amino-2-methyl-4-oxo-4H-quinazolin-3-yl)-piperidine-2,6-dione], the Ikaros expression result in the test on Ikaros was “inhibited the expression of both Aiolos and Ikaros”. In addition, the Aiolos expression result in the test with Aiolos [1] was “inhibit Aiolos expression”; in the test on Aiolos [3], “inhibited the expression of both Aiolos and Ikaros”; in the test with Aiolos [4], “showed inhibitory effect on Aiolos expression”; with Aiolos [5], “showed an inhibitory effect on Aiolos expression”. Moreover, the Aiolos protein level result with Aiolos [2] was “down regulated”. In the test on Aiolos [2], the “Dose dependence of Aiolos inhibition by flow cytometry” value (shortened to “Dose dependence of Aiolos inhibition”) is given as “dose-dependent inhibition of Aiolos”. In addition, in the test on Aiolos [4], the “Potency in Aiolos protein inhibition relative to Len” value is reported as “higher potency than Len”. For the same compound, the “p21^WAF-1 protein level” value with p21^WAF-1 was “upregulated”. For the same compound, the CRBN protein levels result at CRBN was “do not affect CRBN protein levels or in some samples induce slight increased of CRBN levels”. In the test on IRF4, the IRF4 protein level result is listed as “down regulated”.
For `O=C1CC[C@H](N2Cc3c(OCc4ccc(CN5CCOCC5)cc4)cccc3C2=O)C(=O)N1` [Compound B, 3-(4-((4-(morpholinomethyl)benzyl)oxy)-1-oxoisoindolin-2-yl)piperidine-2,6-dione], the Ikaros expression entry in the test with Ikaros was “inhibited the expression of both Aiolos and Ikaros”. Besides, the Aiolos expression entry in the test with Aiolos [1] is “inhibit Aiolos expression”; with Aiolos [3], “inhibited the expression of both Aiolos and Ikaros”; in the test with Aiolos [4], “showed inhibitory effect on Aiolos expression”; in the test on Aiolos [5], “showed an inhibitory effect on Aiolos expression”. In the test on Aiolos [2], the Aiolos protein level entry is “down regulated”. Also, in the test on Aiolos [2], the “Dose dependence of Aiolos inhibition” value is given as “dose-dependent inhibition of Aiolos”. Besides, the “Potency in Aiolos protein inhibition relative to Len” value with Aiolos [4] is “higher potency than Len”. Further, the “p21^WAF-1 protein level” value in the test on p21^WAF-1 is given as “upregulated”. The CRBN protein levels result on CRBN is reported as “do not affect CRBN protein levels or in some samples induce slight increased of CRBN levels”. Moreover, the IRF4 protein level result with IRF4 is given as “down regulated”.
As for `Nc1cccc2c1CN(C1CCC(=O)NC1=O)C2=O` (centres unmarked) [lenalidomide], in the test on p21^WAF-1, the “p21^WAF-1 protein level” value is “upregulated”. Moreover, the IRF4 protein level entry with IRF4 is listed as “down regulated”.
Regarding `Nc1cccc2c1C(=O)N(C1CCC(=O)NC1=O)C2=O` (centres unmarked) [pomalidomide, reference compound], the Ikaros expression result in the test on Ikaros is “inhibited the expression of both Aiolos and Ikaros”. Besides, the Aiolos expression result in the test on Aiolos [1] is “inhibit Aiolos expression”; in the test with Aiolos [3], “inhibited the expression of both Aiolos and Ikaros”; in the test with Aiolos [4], “showed inhibitory effect on Aiolos expression”; in the test with Aiolos [5], “showed an inhibitory effect on Aiolos expression”. The Aiolos protein level result in the test with Aiolos [2] was “down regulated”. In addition, the “Dose dependence of Aiolos inhibition” value in the test with Aiolos [2] is given as “dose-dependent inhibition of Aiolos”. For the same compound, the “Potency in Aiolos protein inhibition relative to Len” value with Aiolos [4] is “higher potency than Len”. In the test with p21^WAF-1, the “p21^WAF-1 protein level” value is “upregulated”. Besides, the CRBN protein levels entry at CRBN is given as “do not affect CRBN protein levels or in some samples induce slight increased of CRBN levels”. Moreover, the IRF4 protein level entry in the test on IRF4 is “down regulated”.

(Values after patent US9857359B2, “Methods for determining drug efficacy using cereblon-associated proteins” (CELGENE CORPORATION, priority 2012, dated 2018).)
